US20210198277A1, “AMINE-SUBSTITUTED ARYL OR HETEROARYL COMPOUNDS” (Epizyme, Inc., priority 2016, published 2021)
Counter-ions that a name gives are not always drawn.

target: T1, EHMT1 (Homo sapiens, UniProt Q9H9B1); test: EHMT1 enzyme assay on peptide substrate (EHMT1 PEP); assay type: biochemical; details: Table II; read-out: EHMT1 PEP (IC50 μM)
T1 sequence (Q9H9B1 1-1298): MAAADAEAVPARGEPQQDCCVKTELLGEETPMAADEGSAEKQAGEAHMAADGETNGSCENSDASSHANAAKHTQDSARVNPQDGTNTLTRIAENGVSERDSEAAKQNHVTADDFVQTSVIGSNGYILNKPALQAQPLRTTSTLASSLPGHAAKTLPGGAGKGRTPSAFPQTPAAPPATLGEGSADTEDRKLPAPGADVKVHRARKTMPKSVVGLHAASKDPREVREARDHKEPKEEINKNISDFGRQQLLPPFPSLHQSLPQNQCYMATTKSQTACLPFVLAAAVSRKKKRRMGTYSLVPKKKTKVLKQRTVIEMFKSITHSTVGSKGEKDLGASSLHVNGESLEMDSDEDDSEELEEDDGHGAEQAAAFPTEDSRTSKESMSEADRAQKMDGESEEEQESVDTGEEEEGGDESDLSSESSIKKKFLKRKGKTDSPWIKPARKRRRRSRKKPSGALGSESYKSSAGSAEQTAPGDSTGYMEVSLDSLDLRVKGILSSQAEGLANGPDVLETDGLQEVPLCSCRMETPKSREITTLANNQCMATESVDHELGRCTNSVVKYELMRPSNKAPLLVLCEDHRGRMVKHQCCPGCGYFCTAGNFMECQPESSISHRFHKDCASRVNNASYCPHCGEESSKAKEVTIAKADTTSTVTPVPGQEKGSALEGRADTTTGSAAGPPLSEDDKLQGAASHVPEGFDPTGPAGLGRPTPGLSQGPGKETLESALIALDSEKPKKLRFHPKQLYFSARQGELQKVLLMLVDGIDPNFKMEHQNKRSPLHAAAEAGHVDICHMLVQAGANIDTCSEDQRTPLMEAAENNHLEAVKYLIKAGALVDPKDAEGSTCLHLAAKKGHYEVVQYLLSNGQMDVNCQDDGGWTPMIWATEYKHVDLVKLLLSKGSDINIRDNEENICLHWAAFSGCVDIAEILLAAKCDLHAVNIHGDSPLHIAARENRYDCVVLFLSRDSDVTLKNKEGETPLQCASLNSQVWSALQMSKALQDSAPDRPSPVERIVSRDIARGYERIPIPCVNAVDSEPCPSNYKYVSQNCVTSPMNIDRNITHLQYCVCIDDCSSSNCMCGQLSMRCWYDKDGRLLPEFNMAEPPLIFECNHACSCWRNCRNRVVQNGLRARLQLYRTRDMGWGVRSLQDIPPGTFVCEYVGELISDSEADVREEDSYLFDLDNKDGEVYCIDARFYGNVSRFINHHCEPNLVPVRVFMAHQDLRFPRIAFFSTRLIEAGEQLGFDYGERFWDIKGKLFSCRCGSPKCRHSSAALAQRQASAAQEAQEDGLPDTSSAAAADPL

First: COc1ccc(Nc2nccc(NC(C)(C)C)n2)cc1OCCCN1CCCC1 [Compound 6, N^4-(tert-butyl)-N^2-(4-methoxy-3-(3-(pyrrolidin-1-yl)propoxy)phenyl)pyrimidine-2,4-diamine]
Second: COc1ccc(Nc2nccc(NC3COC3)n2)cc1OCCCN1CCCC1 [Compound 137]
The IC50 of the first is lower: 0.1 to 1 µM for the first, 1 to 10 µM for the second.

First: COc1ccc(Nc2ccnc(NCC3CCNCC3)n2)cc1OCCCN1CCCC1 [Compound 7, 4-N-[4-methoxy-3-[3-(pyrrolidin-1-yl)propoxy]phenyl]-2-N-(piperidin-4-ylmethyl)pyrimidine-2,4-diamine hydrochloride]
Second: COc1ccc(Nc2cc(NCC3CCNCC3)ccn2)cc1OCCCN1CCCC1 [Compound 10, N^2-(4-methoxy-3-(3-(pyrrolidin-1-yl)propoxy)phenyl)-N^4-(piperidin-4-ylmethyl)pyridine-2,4-diamine]
The IC50 of the first is lower: < 0.1 µM for the first, 0.1 to 1 µM for the second. The first is the more potent here.

First: CC(=O)N1CCC(CNc2ccnc(Nc3ccc(Cl)c(OCCCN4CCCC4)c3)n2)CC1 [Compound 8, 1-(4-(((2-((4-chloro-3-(3-(pyrrolidin-1-yl)propoxy)phenyl)amino)pyrimidin-4-yl)amino)methyl)piperidin-1-yl)ethan-1-one]
Second: CC(=O)N1CCC(CNc2ccnc(Nc3ccc(C)c(OCCCN4CCCC4)c3)n2)CC1 [Compound 145]
The IC50 of the first is lower: 0.1 to 1 µM for the first, 1 to 10 µM for the second. The first is the more potent here.

`CNC(=O)c1cnc(Nc2ccc(OC)c(OCCCN3CCCC3)c2)nc1` [Compound 9, 2-((4-methoxy-3-(3-(pyrrolidin-1-yl)propoxy)phenyl)amino)-N-methylpyrimidine-5-carboxamide] and `COc1ccc(Nc2nccc(CNC(C)=O)n2)cc1OCCCN1CCCC1` [Compound 144] cannot be ordered by IC50: > 10 µM for the first, > 10 µM for the second.

First: COc1cnc(Nc2ccnc(CNC3CCOCC3)c2)cc1OCCCN1CCCC1 [Compound 12, 5-methoxy-4-(3-(pyrrolidin-1-yl)propoxy)-N-(2-(((tetrahydro-2H-pyran-4-yl)amino)methyl)pyridin-4-yl)pyridin-2-amine]
Second: COc1ccc(Nc2cc(CNC3CCOCC3)n(C)n2)cc1OCCCN1CCCC1 [Compound 127]
The IC50 of the first is lower: 1 to 10 µM for the first, > 10 µM for the second.

`COc1ccc(Nc2ccnc(N(C)CC3CCN(C(C)=O)CC3)c2)cc1OCCCN1CCCC1` [Compound 13, 1-(4-(((4-((4-methoxy-3-(3-(pyrrolidin-1-yl)propoxy)phenyl)amino)pyridin-2-yl)(methyl)amino)methyl)piperidin-1-yl)ethan-1-one] and `COc1ccc(Nc2cc(N(C)CC3CCN(C(C)=O)CC3)ccn2)cc1OCCCN1CCCC1` [Compound 163] cannot be ordered by IC50: > 10 µM for the first, > 10 µM for the second.

First: COc1ccc(Nc2nccc(OCC3CCN(C(C)=O)CC3)n2)cc1OCCCN1CCCC1 [Compound 14, 1-(4-(((2-((4-methoxy-3-(3-(pyrrolidin-1-yl)propoxy)phenyl)amino)pyrimidin-4-yl)oxy)methyl)piperidin-1-yl)ethan-1-one]
Second: COc1ccc(Nc2ccnc(OCC3CCN(C(C)=O)CC3)c2)cc1OCCCN1CCCC1 [Compound 157]
The IC50 of the first is higher: > 10 µM for the first, 1 to 10 µM for the second.

Compared with `COc1ccc(Nc2nccc(NCC3CCNCC3)n2)cc1OCC(O)CN1CCCC1` (stereo not shown) [Compound 15, 1-(2-methoxy-5-((4-((piperidin-4-ylmethyl)amino)pyrimidin-2-yl)amino)phenoxy)-3-(pyrrolidin-1-yl)propan-2-ol], `COc1ccc(Nc2nc(NCC3CCNCC3)cc(N3CCCC3)n2)cc1OCCCN1CCCC1` [Compound 103] is higher in IC50: < 0.1 µM for the first, 0.1 to 1 µM for the second. The first is the more potent here.

`COc1ccc(Nc2cc(CNC3CCNCC3)n(C)n2)cc1OCCCN1CCCC1` [Compound 126] and `COc1ccc(Nc2nccc(N3CCC(OC)CC3)n2)cc1OCCCN1CCCC1` [Compound 149] cannot be ordered by IC50: > 10 µM for the first, > 10 µM for the second.

`COc1ccc(Nc2nccc(N3CCc4[nH]ncc4C3)n2)cc1OCCCN1CCCC1` [Compound 128] and `COc1ccc(Nc2nccc(N3CCc4cn[nH]c4C3)n2)cc1OCCCN1CCCC1` [Compound 155] cannot be ordered by IC50: > 10 µM for the first, > 10 µM for the second.

`COc1ccc(Nc2nccc(-c3c(C)n[nH]c3C)n2)cc1OCCCN1CCCC1` [Compound 129] and `COc1ccc(Nc2nccc(-c3c(C)noc3C)n2)cc1OCCCN1CCCC1` [Compound 130] cannot be ordered by IC50: > 10 µM for the first, > 10 µM for the second.

First: COc1ccc(Nc2nccc(-c3c[nH]nc3C)n2)cc1OCCCN1CCCC1 [Compound 131]
Second: COc1ccc(Nc2nccc(N(C)CCO)n2)cc1OCCCN1CCCC1 [Compound 150]
The IC50 of the first is higher: > 10 µM for the first, 1 to 10 µM for the second. The second is the more potent here.

`COc1ccc(Nc2nccc(N3CCN(C)C(=O)C3)n2)cc1OCCCN1CCCC1` [Compound 132] and `COc1ccc(Nc2nccc(N3CCCNC(=O)C3)n2)cc1OCCCN1CCCC1` [Compound 133] cannot be ordered by IC50: > 10 µM for the first, > 10 µM for the second.

Compared with `COc1ccc(Nc2nccc(N3CCc4nc[nH]c(=O)c4C3)n2)cc1OCCCN1CCCC1` [Compound 134], `COc1ccc(Nc2nccc(N3CCc4ncncc4C3)n2)cc1OCCCN1CCCC1` [Compound 156] is lower in IC50: > 10 µM for the first, 1 to 10 µM for the second. The second is the more potent here.

`COc1ccc(Nc2nccc(N(C)Cc3cccnc3)n2)cc1OCCCN1CCCC1` [Compound 135] and `COc1ccc(Nc2nccc(N(C)Cc3ccccn3)n2)cc1OCCCN1CCCC1` [Compound 136] fall in the same range of IC50: 1 to 10 µM for the first, 1 to 10 µM for the second.

`COc1ccc(Nc2nccc(N3CCCN(C(C)=O)CC3)n2)cc1OCCCN1CCCC1` [Compound 138] and `COc1ccc(Nc2nccc(N3CCN(C(C)=O)CC3)n2)cc1OCCCN1CCCC1` [Compound 139] cannot be ordered by IC50: > 10 µM for the first, > 10 µM for the second.

`COc1ccc(Nc2nccc(N(C)CCCO)n2)cc1OCCCN1CCCC1` [Compound 140] and `COCCCN(C)c1ccnc(Nc2ccc(OC)c(OCCCN3CCCC3)c2)n1` [Compound 143] fall in the same range of IC50: 1 to 10 µM for the first, 1 to 10 µM for the second.

`COc1ccc(Nc2nccc(N3CCC(C)(O)CC3)n2)cc1OCCCN1CCCC1` [Compound 141] and `COc1ccc(Nc2nccc(N3CCC(O)CC3)n2)cc1OCCCN1CCCC1` [Compound 148] cannot be ordered by IC50: > 10 µM for the first, > 10 µM for the second.

First: COc1ccc(Nc2nccc(N(C)C3CCOCC3)n2)cc1OCCCN1CCCC1 [Compound 142]
Second: COc1ccc(Nc2nccc(N(C)CC3CCOCC3)n2)cc1OCCCN1CCCC1 [Compound 146]
The IC50 of the first is lower: 1 to 10 µM for the first, > 10 µM for the second. The first is the more potent here.

`COc1ccc(Nc2nccc(N3CCC(C(C)(C)O)CC3)n2)cc1OCCCN1CCCC1` [Compound 147] and `COc1ccc(Nc2nccc(N3CCC(C(N)=O)CC3)n2)cc1OCCCN1CCCC1` [Compound 153] fall in the same range of IC50: 1 to 10 µM for the first, 1 to 10 µM for the second.

`COc1ccc(Nc2nccc(N3CCCOCC3)n2)cc1OCCCN1CCCC1` [Compound 151] and `COc1ccc(Nc2nccc(N3CCN(S(C)(=O)=O)CC3)n2)cc1OCCCN1CCCC1` [Compound 162] cannot be ordered by IC50: > 10 µM for the first, > 10 µM for the second.

First: COc1ccc(Nc2nccc(NC3CCS(=O)(=O)CC3)n2)cc1OCCCN1CCCC1 [Compound 152]
Second: COc1ccc(Nc2nccc(N3CCC(NC(C)=O)CC3)n2)cc1OCCCN1CCCC1 [Compound 161]
The IC50 of the first is lower: 1 to 10 µM for the first, > 10 µM for the second.

`COc1ccc(Nc2nccc(N3CCNc4ccccc4C3)n2)cc1OCCCN1CCCC1` [Compound 154] and `COc1ccc(Nc2nccc(NCc3ccc4[nH]ncc4c3)n2)cc1OCCCN1CCCC1` [Compound 164] cannot be ordered by IC50: > 10 µM for the first, > 10 µM for the second.

`COc1ccc(N(C)c2nccc(NCC3CCN(C(C)=O)CC3)n2)cc1OCCCN1CCCC1` [Compound 158] and `COc1ccc(Nc2nccc(NCC3CCN(C(C)=O)CC3)n2)cc1OCCCNc1ccccc1` [Compound 160] cannot be ordered by IC50: > 10 µM for the first, > 10 µM for the second.

In the case of `COc1ccc(Nc2nccc(NCC3CCN(C)CC3)n2)cc1OCCCNc1ccccc1` [Compound 159], the IC50 is reported as > 10 µM.
